Results published in ChEMBL document CHEMBL3045807, “Synthesis of novel pyrazolyl tetrazoles as selective COX-2 inhibitors” (Med Chem Res, 2013).
Values belong to the compound of their own block, whether it stands above or below them.

Experiments:
Rattus norvegicus [1] = assay: Ulcerogenic activity against fasted albino Rattus norvegicus (rat) assessed as ulcer index at 100 mg/kg, po administered QD for 3 days measured on day 4; type: toxicity, organism-based; parameters: dose 100 mg/kg, route oral; conditions: in vivo, 72 h
Rattus norvegicus [2] = assay: Anti-inflammatory activity in albino Rattus norvegicus (rat) assessed as inhibition of carrageenan-induced paw edema at 20 mg/kg, po administered 1 hr prior to carrageenan-challenge measured at 3 hr relative to control; type: functional
Rattus norvegicus [3] = assay: Anti-inflammatory activity in albino Rattus norvegicus (rat) assessed as carrageenan-induced paw edema volume at 20 mg/kg, po administered 1 hr prior to carrageenan-challenge measured at 2 hr (reference value: 4.25 +/- 0.07 ml); type: functional
Rattus norvegicus [4] = assay: Ulcerogenic activity against fasted albino Rattus norvegicus (rat) assessed as ulcer index at 50 mg/kg, po administered QD for 3 days measured on day 4; type: toxicity, organism-based; parameters: dose 50 mg/kg, route oral; conditions: in vivo, 72 h
Rattus norvegicus [5] = assay: Anti-inflammatory activity in albino Rattus norvegicus (rat) assessed as carrageenan-induced paw edema volume at 20 mg/kg, po administered 1 hr prior to carrageenan-challenge measured at 1 hr (reference value: 3.75 +/- 0.01 ml); type: functional
Rattus norvegicus [6] = assay: Anti-inflammatory activity in albino Rattus norvegicus (rat) assessed as carrageenan-induced paw edema volume at 20 mg/kg, po administered 1 hr prior to carrageenan-challenge measured at 0.5 hr (reference value: 2.5 +/- 0.02 ml); type: functional
Ovis aries = species: Ovis aries; assay: Selectivity ratio of IC50 for Ovis aries (sheep) COX2 to IC50 for ovine COX1

SMILES: COc1ccc(-c2nn(-c3ccccc3)cc2-c2nn[nH]n2)cc1
UI (Rattus norvegicus [1]): 14.22

SMILES: Clc1ccc(-c2nn(-c3ccccc3)cc2-c2nn[nH]n2)cc1
UI (Rattus norvegicus [1]): 13.9

SMILES: O=C([O-])Cc1ccccc1Nc1c(Cl)cccc1Cl.[Na+] [DICLOFENAC SODIUM]
inhibition in vivo at 20 mg/kg (Rattus norvegicus [2]): 88%
Activity (Rattus norvegicus [3]): 0.25 mL
UI (Rattus norvegicus [4]): 17.02
Activity (Rattus norvegicus [5]): 1.15 mL
Activity (Rattus norvegicus [6]): 1.67 mL

Ratio IC50 (Ovis aries): 0.02
SMILES: Cc1ccc(-c2cc(C(F)(F)F)nn2-c2ccc(S(N)(=O)=O)cc2)cc1 [CELECOXIB]
UI (Rattus norvegicus [4]): 12.51
